Laboratory results reported in ChEMBL document CHEMBL5244223, “l,8-Naphthalimide based DNA intercalators and anticancer agents. A systematic review from 2007 to 2017” (Eur J Med Chem, 2018).
Converted amounts (≈) assume the structure as drawn. Each block holds one compound with its values, some of them ahead of it.

How the values were obtained:
K562 = test: Cytotoxicity against human K562 cells assessed as inhibition of cell growth incubated for 48 hrs by MTT assay; assay type: functional, cell-based; settings: K562, 48 h
SMMC-7721 [1] = test: Cytotoxicity against human SMMC-7721 cells assessed as inhibition of cell growth incubated for 48 hrs by MTT assay; assay type: functional, cell-based; settings: SMMC-7721, 48 h
HCT-116 = test: Cytotoxicity against human HCT-116 cells assessed as inhibition of cell growth incubated for 48 hrs by MTT assay; assay type: functional, cell-based; settings: HCT-116, 48 h
Clupea harengus = test: Binding affinity to herring DNA assessed as binding constant incubated for 30 mins by fluorescence based EtBr-UV absorption spectral analysis
HeLa [2] = test: Antiproliferative activity against human HeLa cells assessed as inhibition of cell proliferation by MTT assay; assay type: functional, cell-based
P388 [3] = test: Antiproliferative activity against mouse P388 cells assessed as inhibition of cell proliferation by MTT assay; assay type: functional, cell-based
A-375 [4] = test: Antiproliferative activity against human A-375 cells assessed as inhibition of cell proliferation by MTT assay; assay type: functional, cell-based
Calf thymus DNA [5] = test: Binding affinity to calf thymus DNA assessed as binding constant incubated for 30 mins by fluorescence based EtBr-displacement assay; assay type: nucleic-acid assay; settings: Bos taurus
Escherichia coli = test: Antibacterial activity against Escherichia coli MTCC-739 assessed as inhibition of bacterial growth incubated for 24 hrs by two-fold serial dilution assay; assay type: functional
Salmonella typhimurium = test: Antibacterial activity against Salmonella typhimurium MTCC-98 assessed as inhibition of bacterial growth incubated for 24 hrs by two-fold serial dilution assay; assay type: functional, Salmonella enterica subsp. enterica serovar Typhimurium; settings: Salmonella enterica
Staphylococcus aureus = test: Antibacterial activity against Staphylococcus aureus MTCC-737 assessed as inhibition of bacterial growth incubated for 24 hrs by two-fold serial dilution assay; assay type: functional
Jurkat = test: Antiproliferative activity against human Jurkat cells assessed as inhibition of cell proliferation incubated for 72 hrs by MTT assay; assay type: functional, cell-based
A549 [6] = test: Antiproliferative activity against human A549 cells assessed as inhibition of cell proliferation incubated for 72 hrs by MTT assay; assay type: functional, cell-based; settings: A549, 72 h
MCF7 [7] = test: Antiproliferative activity against human MCF7 cells assessed as inhibition of cell proliferation incubated for 72 hrs by MTT assay; assay type: functional, cell-based; settings: MCF7, 72 h
Calf thymus DNA [8] = test: Binding affinity to calf thymus DNA assessed as apparent binding constant by fluorescence based EtBr-displacement assay; assay type: nucleic-acid assay; settings: Bos taurus
Salmon testes DNA = test: Binding affinity to salmon Testis DNA assessed as equilibrium binding constant by steady-state fluorescence spectroscopic analysis; settings: Salmo salar
Homo sapiens [9] = organism: Homo sapiens; test: Binding affinity to double stranded [poly(dA-dT)2] DNA (unknown origin) assessed as equilibrium binding constant by steady-state fluorescence spectroscopic analysis
Homo sapiens [10] = organism: Homo sapiens; test: Binding affinity to double stranded [poly(dG-dC)2] DNA (unknown origin) assessed as equilibrium binding constant by steady-state fluorescence spectroscopic analysis
Calf thymus DNA [11] = test: Binding affinity to calf thymus DNA assessed as binding constant incubated for 10 mins by isothermal titration calorimetric assay; assay type: nucleic-acid assay; settings: Bos taurus
HepG2 = test: Antiproliferative activity against human HepG2 cells assessed as inhibition of cell growth incubated for 48 hrs by MTT assay; assay type: functional, cell-based; settings: HepG2, 48 h
SMMC-7721 [12] = test: Antiproliferative activity against human SMMC-7721 cells assessed as inhibition of cell growth incubated for 48 hrs by MTT assay; assay type: functional, cell-based; settings: SMMC-7721, 48 h
Bel-7402 = test: Antiproliferative activity against human Bel-7402 cells assessed as inhibition of cell growth incubated for 48 hrs by MTT assay; assay type: functional, cell-based; settings: Bel-7402, 48 h
H22 = test: Antiproliferative activity against mouse H22 cells assessed as inhibition of cell growth incubated for 48 hrs by MTT assay; assay type: functional, cell-based; settings: H22, 48 h
HeLa [13] = test: Cytotoxicity against human HeLa cells assessed as cell growth inhibition by MTT assay; assay type: functional, cell-based
A549 [14] = test: Cytotoxicity against human A549 cells assessed as cell growth inhibition by MTT assay; assay type: functional, cell-based
HL-60 = test: Cytotoxicity against human HL-60 cells assessed as cell growth inhibition by MTT assay; assay type: functional, cell-based
MCF7 [15] = test: Cytotoxicity against human MCF7 cells assessed as cell growth inhibition by MTT assay; assay type: functional, cell-based
HCT-8 = test: Cytotoxicity against human HCT-8 cells assessed as cell growth inhibition by MTT assay; assay type: functional, cell-based
A-375 [16] = test: Cytotoxicity against human A-375 cells assessed as cell growth inhibition by MTT assay; assay type: functional, cell-based
P388 [17] = test: Cytotoxicity against mouse P388 cells assessed as cell growth inhibition by MTT assay; assay type: functional, cell-based
[18] = Selectivity ratio of IC50 for cytotoxicity against human HeLa cells under hypoxic condition to IC50 for cytotoxicity against human HeLa cells under aerobic condition; assay type: functional

Structure (SMILES): CN(C)CCNc1ccc2c3c(cccc13)C(=O)N(c1ccc(S(=O)(=O)NC(=O)c3ccc(N4CCN(CC=C(c5ccccc5)c5ccccc5)CC4)cc3)cc1)C2=O
- IC50 (HeLa [2]): 6.7 µM
- IC50 (P388 [3]): 6.7 µM
- IC50 (A-375 [4]): 6.7 µM

Structure (SMILES): C[n+]1ccc(CCN2C(=O)c3cccc4c(N)ccc(c34)C2=O)cc1
- Kb (Salmon testes DNA): 1.38 10^5/M
- Kb (Homo sapiens [9]): 5.15 10^5/M
- Kb (Homo sapiens [10]): 0.82 10^5/M

Structure (SMILES): C[n+]1ccn(CCN2C(=O)c3cc(Br)c4c5c(cc(Br)c(c35)C2=O)C(=O)N(CCn2cc[n+](C)c2)C4=O)c1
- K (Calf thymus DNA [11]): 9.53 10^6/M

Structure (SMILES): O=C1c2cccc3cc([N+](=O)[O-])cc(c23)C(=O)N1CCCCN(CCCl)CCCl
- IC50 (HepG2): 1.9 µM
- IC50 (SMMC-7721 [12]): 1.9 µM
- IC50 (Bel-7402): 1.9 µM
- IC50 (H22): 1.9 µM

Structure (SMILES): COc1ccc2c(CC(=O)OCCN3C(=O)c4cccc5c(N(C)C)ccc(c45)C3=O)c(C)n(C(=O)c3ccc(Cl)cc3)c2c1
- IC50 (HeLa [13]): 13.9 µM
- IC50 (A549 [14]): 13.9 µM
- IC50 (HL-60): 13.9 µM
- IC50 (MCF7 [15]): 13.9 µM
- IC50 (HCT-8): 13.9 µM
- IC50 (A-375 [16]): 13.9 µM
- IC50 (P388 [17]): 13.9 µM
- Ratio IC50 [18]: 1.3

Further lines, with some results ahead:

- Kb (Clupea harengus): 6.06 10^3/M
Structure (SMILES): NCCCCNCCCN1C(=O)c2cccc3cccc(c23)C1=O
- IC50 (K562): 5.45 µM
- IC50 (SMMC-7721 [1]): 5.45 µM
- IC50 (HCT-116): 5.45 µM

- Kb (Calf thymus DNA [5]): 2 10^4/M
- MIC (Escherichia coli): 31 µg/mL (≈ 86 µM)
- MIC (Salmonella typhimurium): 62 µg/mL (≈ 172 µM)
- MIC (Staphylococcus aureus): 62 µg/mL (≈ 172 µM)
Structure (SMILES): COc1ccc(/C=N/N2C(=O)c3cccc4cccc(c34)C2=O)cc1OC

- IC50 (Jurkat): 5.58 µM
- IC50 (A549 [6]): 5.67 µM
- IC50 (MCF7 [7]): 5.67 µM
- Kapp (Calf thymus DNA [8]): 3.1 10^6/M
Structure (SMILES): O=C1c2cccc3cccc(c23)C(=O)N1CCCCCCNCc1ccccn1
